Reference: patent US6924252B1, “Weed control” (Aventis Agriculture Limited, priority 1999, dated 2005)

Legend:
Type in all cases: in vivo
[1] = system: Amaranthus retroflexus; experiment: Glasshouse pot test, soil surface application, visual % reduction (Example 1); settings: 14 DAT
Procedure: (§1) 7×7 cm^2 pots were filled with a non-sterile loam soil. Weed seeds (Amaranthus retroflexus, Echinochloa crus galli and Setaria viridis) were placed in three separate shallow wells with a maize seed (Pioneer 3394) inserted to a depth of 4 cm in between in each pot and the seeds lightly covered with soil. A 1 ml solution of technical isoxaflutole, suitably diluted to give a dose equivalent to 6.25, 12.5, 25, 50 and 100 g/ha in acetonitrile, was pipetted evenly on the soil surface of pots (replicated 10 times), according to the following regime. On day 1, a set of 5 pots were treated with 5 dose rates (6.25-100 g/ha) and set aside in the glasshouse. At the same time, on day 1 a second set of 4 pots were with 4 dose rates (treatment A. 6.25-50 g/ha) along with a third set of 3 pots treated with 3 dose rates (treatment B: 6.25-25 g/ha). On day 2 each of the second and third pots were treated again the pots receiving identical treatments A and B and second set of pots set aside in the glasshouse. On day 3 each of the third set of pots were treated again, the pots receiving identical treatment B. On day 4 each of the third set of pots were treated, the pots receiving identical treatment B and the pots set aside in the glasshouse. The pots were maintained in a glasshouse, with overhead watering (3×daily) and supplementary lighting. Visual assessment of % reduction, compared to untreated control plants was recorded 14 days after treatment. The results (average of 10 replicates) arm shown on Table 1, where the dosing regime refers to the number of daily applications followed by the dose of compound on each day.

[2] = system: Echinochloa crus galli; experiment: as above; settings: 14 DAT
Procedure: as §1

[3] = system: Setaria viridis; experiment: as above; settings: 14 DAT
Procedure: as §1

[4] = system: Maize; experiment: Activity on crop after spraying on sown maize (Example 3); settings: 105 g/ha, observed after 3 weeks
Source text: (§2) Maize is sown and then grown up in area where weeds and weed seeds are present. The weeds are a selection from: Alopecurus myosuroides, Avena fatua, Digitaria sanguinalis, Echinochloa crus-galli, Eleusine indica, Lolium multiflorum, Setaria viridis, Sorghum halepense, Cyperus esculentus, Cyperus iria, Cyperus rotundus, Eleocharis acicularis, Abutilon theophrasti, Amaranthus retroflexus, Bidens pilosa, Chenopodium album, Galium aparine, Ipomgoea purpurea, Lamium purpureum, Matricaria inodora, Sesbania exalta, Sinapis arvensis, Solanum nigrum, Stellaria media, Veronica hederifolia, Veronica Persia, Viola arvensis and Xanthium strumarium.
After one week sowing the maize, isoxazole is sprayed as an encapsulated formulation as hereinbefore described at a rate of 105 g/ha of herbicidally active compound, the weight ratio of isoxazole: copolyester being 1:10. The amounts of isoxazole of formula (I) and DKN were measured after 4 days in a 5 cm deep soil core around the seed or seedling.
The activity of the isoxazole on the crop and weeds was observed after 3 weeks, and found to be equal to 2% and 95% respectively.

[5] = system: weeds; experiment: Activity on weeds after spraying on sown maize (Example 3); settings: 105 g/ha, observed after 3 weeks
Source text: as §2, with “[…],” for “exalta,”, “[…],” for “Persia,”, “strumarium. […] The amounts of isoxazole of formula (I) and DKN were measured after 4 days in a 5 cm deep soil core around the seed or seedling. The weight ratio of isoxazole: […]” for “strumarium.”

[6] = system: Amaranthus retroflexus; experiment: Sequential soil surface application on plots (Example 5); settings: 14 DAT
Source text: (§3) Maize is sown and grown up in an area where weeds and weed seedlings are present. The weeds are Amaranthus retroflexus, Echinochloa crus-galli and Setaria viridis. Solutions of isoxazole in acetonitrile were applied directly to the soil surface at dose rates of 100, 50 and 25 g/ha to plots A, B and C respectively. 1 DAT dose rates of 50 and 25 g/ha were applied to plots B and C respectively, 2 and 3 DAT a dose rate of 25 g/ha was applied to plot C.
(§4) Activity of the isoxazole on maize and weed species was observed 14 DAT.

[7] = system: Echinochloa crus-galli; experiment: as above; settings: 14 DAT
Source text: as §3, §4

[8] = system: Maize; experiment: as above; settings: 14 DAT
Source text: as §3, §4

[9] = system: Setaria viridis; experiment: as above; settings: 14 DAT
Source text: as §3, §4

[10] = dosing regime 2 × 6.25 g/ha (daily applications × dose)

## CS(=O)(=O)c1cc(C(F)(F)F)ccc1C(=O)c1cnoc1C1CC1 [isoxaflutole, 5-cyclopropyl-4-(2-methylsulphonyl-4-trifluoromethylbenzoyl)isoxazole]
[1]; dosing regime 1 × 12.5 g/ha
  % Damage Amare: 0%
[1]; dosing regime 1 × 25 g/ha
  % Damage Amare: 8%
[1]; dosing regime 1 × 50 g/ha
  % Damage Amare: 50%
[1]; dosing regime 1 × 100 g/ha
  % Damage Amare: 79%
[1]; [10]
  % Damage Amare: 34%
[1]; dosing regime 2 × 12.5 g/ha
  % Damage Amare: 46%
[1]; dosing regime 2 × 25 g/ha
  % Damage Amare: 42%
[1]; dosing regime 2 × 50 g/ha
  % Damage Amare: 78%
[1]; dosing regime 4 × 6.25 g/ha
  % Damage Amare: 80%
[1]; dosing regime 4 × 12.5 g/ha
  % Damage Amare: 79%
[1]; dosing regime 4 × 25 g/ha
  % Damage Amare: 90%
[2]; dosing regime 1 × 12.5 g/ha
  % Damage Echcg: 0%
[2]; dosing regime 1 × 25 g/ha
  % Damage Echcg: 32%
[2]; dosing regime 1 × 50 g/ha
  % Damage Echcg: 84%
[2]; dosing regime 1 × 100 g/ha
  % Damage Echcg: 94%
[2]; [10]
  % Damage Echcg: 18%
[2]; dosing regime 2 × 12.5 g/ha
  % Damage Echcg: 68%
[2]; dosing regime 2 × 25 g/ha
  % Damage Echcg: 70%
[2]; dosing regime 2 × 50 g/ha
  % Damage Echcg: 96%
[2]; dosing regime 4 × 6.25 g/ha
  % Damage Echcg: 97%
[2]; dosing regime 4 × 12.5 g/ha
  % Damage Echcg: 100%
[2]; dosing regime 4 × 25 g/ha
  % Damage Echcg: 100%
[3]; dosing regime 1 × 12.5 g/ha
  % Damage Setvi: 0%
[3]; dosing regime 1 × 25 g/ha
  % Damage Setvi: 10%
[3]; dosing regime 1 × 50 g/ha
  % Damage Setvi: 24%
[3]; dosing regime 1 × 100 g/ha
  % Damage Setvi: 59%
[3]; [10]
  % Damage Setvi: 18%
[3]; dosing regime 2 × 12.5 g/ha
  % Damage Setvi: 42%
[3]; dosing regime 2 × 25 g/ha
  % Damage Setvi: 44%
[3]; dosing regime 2 × 50 g/ha
  % Damage Setvi: 66%
[3]; dosing regime 4 × 6.25 g/ha
  % Damage Setvi: 75%
[3]; dosing regime 4 × 12.5 g/ha
  % Damage Setvi: 91%
[3]; dosing regime 4 × 25 g/ha
  % Damage Setvi: 77%

## CS(=O)(=O)c1cc(C(F)(F)F)ccc1C(=O)c1cnoc1C1CC1 [isoxazole]
[4]
  activity of the isoxazole on the crop: 15%
[5]
  activity of the isoxazole on the weeds: 95%
[6]; dosing regime 1 × 100 g/ha
  Activity AMARE: 79
[6]; dosing regime 2 × 50 g/ha
  Activity AMARE: 78
[6]; dosing regime 4 × 25 g/ha
  Activity AMARE: 90
[7]; dosing regime 1 × 100 g/ha
  Activity ECHCG: 94
[7]; dosing regime 2 × 50 g/ha
  Activity ECHCG: 96
[7]; dosing regime 4 × 25 g/ha
  Activity ECHCG: 100
[8]; dosing regime 1 × 100 g/ha
  Activity Maize: 8
[8]; dosing regime 2 × 50 g/ha
  Activity Maize: 10
[8]; dosing regime 4 × 25 g/ha
  Activity Maize: 6
[9]; dosing regime 1 × 100 g/ha
  Activity SETVI: 59
[9]; dosing regime 2 × 50 g/ha
  Activity SETVI: 66
[9]; dosing regime 4 × 25 g/ha
  Activity SETVI: 77
